Reference: patent US9040523B2, “Antifungal 5,6-dihydro-4H-pyrrolo[1,2-α][1,4]-benzodiazepines and 6H-pyrrolo[1,2-α][1,4]benzodiazepines substituted with benzene derivatives” (JANSSEN PHARMACEUTICA NV, priority 2010, dated 2015)

Tests used:
[1] = test system: Scedosporium apiospermum IHEM3817; assay: Antifungal activity in vitro (resazurin susceptibility screen), Inf. H; assay type: cell-based; details: 37 °C, 48 hours, resa time 17 hours, read-out: Inf. H pIC50 (converted)
Experimental: (§1) The standard susceptibility screen was performed in 96-well plates (U-bottom, Greiner Bio-One). […] These serial dilutions (10 n1) were then spotted onto test-plates that could be stored in the dark at 4° C. for a maximum period of 2 weeks. […] The different fungal species/isolates (Table 3a) were cryopreserved and 1/1000 diluted in medium just prior to use. A standard inoculum of 200 μl containing 10^3 colony-forming unit (cfu) was then added to each well. A positive control (100% growth=fungal culture without antifungal) and a negative control (0% growth ═RPMI-MOPS medium) were included on each plate. […] [table]

[2] = test system: Mucor circinelloides IHEM21105; assay: Antifungal activity in vitro (resazurin susceptibility screen), Inf. L; assay type: cell-based; details: 27 °C, 48 hours, resa time 17 hours, read-out: Inf. L pIC50 (converted)
Experimental: as §1

CYP3A4 = CYP3A4 (Homo sapiens, UniProt P08684); assay: Cytochrome P450 inhibition, Protocol A, cDNA expressed proteins, fluorogenic substrates; assay type: in vitro ADME; details: % inhibition at 10 μM, cDNA expressed protein; for hCYP3A4_BFC_Pct_Inh: substrate BFC; for hCYP3A4_BQ_Pct_Inh: substrate BQ; for hCYP3A4_DBF_Pct_Inh: substrate DBF
How it was run: (§2)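 cDNA-expressed enzymes with fluorogenic substrates (three separate ones for CYP3A4) in sodium/potassium buffer pH 7.4 plus NADPH-generating system. Compounds at 1 nM to 10 μM final, prewarmed 5 min at 37° C, reaction started with NADP+, stopped, then fluorescence measured.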

CYP2D6 = CYP2D6 (Homo sapiens, UniProt P10635); assay: Cytochrome P450 inhibition, Protocol A, cDNA expressed proteins, fluorogenic substrate; assay type: in vitro ADME; details: % inhibition at 10 μM; substrate AMMC; cDNA expressed protein
How it was run: as §2

[3] = test system: Aspergillus fumigatus B42928; assay: Antifungal activity in vitro (resazurin susceptibility screen), Inf. E; assay type: cell-based; details: Aspergillus fumigatus B42928; 27 °C, 48 hours, resa time 17 hours; read-out: Inf. E pIC50 (converted)
How it was run: (§3)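 Compound serial dilutions were spotted onto test plates, kept in the dark at 4 °C for at most 2 weeks. Cryopreserved isolates were diluted 1/1000 in medium just before use and added at 10^3 cfu per well. Each plate carried drug-free culture as 100% growth and RPMI-MOPS medium alone as 0% growth.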

[4] = Liver metabolic stability assay, gpLM; assay type: in vitro ADME, guinea pig; details: guinea pig microsomes, 1 mg protein/ml, 5 μM test compound, 15 min, 37 °C
Microsporum canis B68128 = assay: Antifungal activity in vitro (resazurin susceptibility screen), Inf. B; assay type: cell-based; details: Microsporum canis, B68128, Microsporum canis B68128; 27 °C, 9 days, resa time 24 hours; read-out: Inf. B pIC50 (converted)
How it was run: (§4)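 Each well was inoculated with 10^3 cfu of fungus onto dried, pre-spotted compound serial dilutions in RPMI-MOPS medium, with fungal growth read by resazurin. Growth was referenced to drug-free culture (100%) and medium-only (0%) controls on each plate.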

[5] = test system: Rhizomucor miehei IHEM13391; assay: Antifungal activity in vitro (resazurin susceptibility screen), Inf. K; assay type: cell-based; details: 37 °C, 48 hours, resa time 17 hours, read-out: Inf. K pIC50 (converted)
Experimental: as §1

Rhizopus oryzae IHEM5223 = assay: Antifungal activity in vitro (resazurin susceptibility screen), Inf. J; assay type: cell-based; details: Rhizopus arrhizus, 37 °C, 24 hours, resa time 6 hours, read-out: Inf. J pIC50 (converted)
Experimental: as §1

[6] = test system: Sporothrix schenkii B62482; assay: Antifungal activity in vitro (resazurin susceptibility screen), Inf. A; assay type: cell-based; details: Sporothrix, B62482, Sporothrix schenkii B62482; 27 °C, 4 days, resa time 24 hours; highest in-test concentration 64 μM; read-out: Inf. A pIC50 (converted)
How it was run: as §3

[7] = Liver metabolic stability assay, hLM; assay type: in vitro ADME, human; details: human liver microsomes, 1 mg protein/ml, 5 μM test compound, 15 min, 37 °C
[8] = test system: Cryptococcus neoformans B66663; assay: Antifungal activity in vitro (resazurin susceptibility screen), Inf. F; assay type: cell-based; details: Cryptococcus neoformans, B66663, Cryptococcus neoformans B66663; 37 °C, 24 hours, resa time 4 hours; read-out: Inf. F pIC50 (converted)
How it was run: as §3

[9] = test system: Candida parapsilosis B66126; assay: Antifungal activity in vitro (resazurin susceptibility screen), Inf. D; assay type: cell-based; details: Lodderomyces parapsilosis; Candida parapsilosis B66126; 37 °C, 24 hours, resa time 4 hours; read-out: Inf. D pIC50 (converted)
How it was run: as §4

Chain of CYP2D6 (P10635 whole entry): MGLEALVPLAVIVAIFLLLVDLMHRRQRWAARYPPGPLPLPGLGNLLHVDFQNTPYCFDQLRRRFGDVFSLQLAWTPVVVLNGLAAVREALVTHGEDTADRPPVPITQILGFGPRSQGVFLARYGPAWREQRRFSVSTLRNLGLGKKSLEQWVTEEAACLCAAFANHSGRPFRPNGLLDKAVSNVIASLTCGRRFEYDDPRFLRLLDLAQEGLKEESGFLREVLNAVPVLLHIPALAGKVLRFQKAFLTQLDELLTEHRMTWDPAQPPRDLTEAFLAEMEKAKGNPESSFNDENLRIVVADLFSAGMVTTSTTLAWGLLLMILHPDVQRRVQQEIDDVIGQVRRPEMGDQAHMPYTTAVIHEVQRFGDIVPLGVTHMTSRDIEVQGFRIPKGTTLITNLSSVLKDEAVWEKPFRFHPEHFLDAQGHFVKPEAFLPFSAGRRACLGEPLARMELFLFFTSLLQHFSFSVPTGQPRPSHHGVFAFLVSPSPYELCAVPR
Chain of CYP3A4 (P08684 whole entry): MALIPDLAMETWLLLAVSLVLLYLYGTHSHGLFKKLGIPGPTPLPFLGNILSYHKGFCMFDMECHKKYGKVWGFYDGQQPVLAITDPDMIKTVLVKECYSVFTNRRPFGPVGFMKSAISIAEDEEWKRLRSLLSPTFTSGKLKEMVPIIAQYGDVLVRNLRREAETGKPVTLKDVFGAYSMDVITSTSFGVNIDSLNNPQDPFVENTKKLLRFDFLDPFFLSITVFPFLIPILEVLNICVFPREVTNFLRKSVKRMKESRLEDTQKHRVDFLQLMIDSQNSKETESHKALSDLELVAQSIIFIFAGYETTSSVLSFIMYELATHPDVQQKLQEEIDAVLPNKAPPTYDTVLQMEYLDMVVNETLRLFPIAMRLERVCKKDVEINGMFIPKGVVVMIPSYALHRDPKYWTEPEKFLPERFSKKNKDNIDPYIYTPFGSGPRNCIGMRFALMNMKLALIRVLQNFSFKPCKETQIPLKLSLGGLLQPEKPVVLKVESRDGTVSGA

CC(=O)c1ccc(C2=NCc3cccc(Cl)c3-n3cccc32)cc1 [Compound 15, 1-[4-(10-chloro-6H-pyrrolo[1,2-a][1,4]benzodiazepin-4-yl)phenyl]-ethanone]
IC50 [1]: 10 µM
IC50 [2]: > 63.1 µM
hCYP3A4_BFC_Pct_Inh (CYP3A4): 1%
hCYP3A4_BQ_Pct_Inh (CYP3A4): 40%
hCYP3A4_DBF_Pct_Inh (CYP3A4): 16%
hCYP2D6_AMMC_Pct_Inh (CYP2D6): 63%
IC50 [3]: 0.501 µM
%-compound metabolised Met_gpLM [4]: 44%
IC50 (Microsporum canis B68128): 0.631 µM
IC50 [5]: 7.94 µM
IC50 (Rhizopus oryzae IHEM5223): > 63.1 µM
IC50 [6]: 1.58 µM
%-compound metabolised_Met_hLM [7]: 17%
IC50 [8]: 2 µM
IC50 [9]: > 63.1 µM

CC(=O)c1cccc(C2=NCc3c(Cl)cccc3-n3cccc32)c1 [Compound 16, 1-[3-(7-chloro-6H-pyrrolo[1,2-a][1,4]benzodiazepin-4-yl)phenyl]-ethanone]
IC50 [1]: > 63.1 µM
IC50 [2]: > 63.1 µM
hCYP3A4_BFC_Pct_Inh (CYP3A4): 29%
hCYP3A4_BQ_Pct_Inh (CYP3A4): 46%
hCYP3A4_DBF_Pct_Inh (CYP3A4): 64%
hCYP2D6_AMMC_Pct_Inh (CYP2D6): 55%
IC50 [3]: 0.631 µM
%-compound metabolised Met_gpLM [4]: 100%
IC50 (Microsporum canis B68128): 0.316 µM
IC50 [5]: > 63.1 µM
IC50 (Rhizopus oryzae IHEM5223): > 63.1 µM
IC50 [6]: 25.1 µM
%-compound metabolised_Met_hLM [7]: 87%
IC50 [8]: > 63.1 µM
IC50 [9]: > 63.1 µM

CC(=O)c1cc(C2=NCc3c(Cl)cccc3-n3cccc32)ccc1F [Compound 19, 1-[5-(7-chloro-6H-pyrrolo[1,2-a][1,4]benzodiazepin-4-yl)-2-fluorophenyl]-ethanone]
IC50 [1]: > 63.1 µM
IC50 [2]: > 63.1 µM
hCYP3A4_BFC_Pct_Inh (CYP3A4): 26%
hCYP3A4_BQ_Pct_Inh (CYP3A4): 49%
hCYP3A4_DBF_Pct_Inh (CYP3A4): 49%
hCYP2D6_AMMC_Pct_Inh (CYP2D6): 33%
IC50 [3]: 2 µM
%-compound metabolised Met_gpLM [4]: 80%
IC50 (Microsporum canis B68128): 1.58 µM
IC50 [5]: > 63.1 µM
IC50 (Rhizopus oryzae IHEM5223): > 63.1 µM
IC50 [6]: > 63.1 µM
%-compound metabolised_Met_hLM [7]: 36%
IC50 [8]: > 63.1 µM
IC50 [9]: > 63.1 µM

CC(=O)c1ccc(C2=NCc3c(F)cccc3-n3cccc32)cc1 [Compound 20, 1-[4-(7-fluoro-6H-pyrrolo[1,2-a][1,4]benzodiazepin-4-yl)phenyl]-ethanone]
IC50 [1]: > 63.1 µM
IC50 [2]: > 63.1 µM
hCYP3A4_BFC_Pct_Inh (CYP3A4): 1%
hCYP3A4_BQ_Pct_Inh (CYP3A4): 25%
hCYP3A4_DBF_Pct_Inh (CYP3A4): 5%
hCYP2D6_AMMC_Pct_Inh (CYP2D6): 20%
IC50 [3]: 0.501 µM
%-compound metabolised Met_gpLM [4]: 88%
IC50 (Microsporum canis B68128): 1.26 µM
IC50 [5]: > 63.1 µM
IC50 (Rhizopus oryzae IHEM5223): > 63.1 µM
IC50 [6]: > 63.1 µM
%-compound metabolised_Met_hLM [7]: 26%
IC50 [8]: > 63.1 µM
IC50 [9]: > 63.1 µM

CC(=O)c1ccc(C2=NCc3c(Cl)cc(Cl)cc3-n3cccc32)cc1 [Compound 22, 1-[4-(7,9-dichloro-6H-pyrrolo[1,2-a][1,4]benzodiazepin-4-yl)phenyl]-ethanone]
IC50 [1]: 50.1 µM
IC50 [2]: > 63.1 µM
hCYP3A4_BFC_Pct_Inh (CYP3A4): 39%
hCYP3A4_BQ_Pct_Inh (CYP3A4): 63%
hCYP3A4_DBF_Pct_Inh (CYP3A4): 89%
hCYP2D6_AMMC_Pct_Inh (CYP2D6): 53%
IC50 [3]: 0.251 µM
%-compound metabolised Met_gpLM [4]: 73%
IC50 (Microsporum canis B68128): 0.1 µM
IC50 [5]: > 63.1 µM
IC50 (Rhizopus oryzae IHEM5223): > 63.1 µM
IC50 [6]: 3.98 µM
%-compound metabolised_Met_hLM [7]: 27%
IC50 [8]: 10 µM
IC50 [9]: 25.1 µM

CC(=O)c1ccc(C2=NCc3c(F)cc(F)cc3-n3cccc32)cc1 [Compound 24, 1-[4-(7,9-difluoro-6H-pyrrolo[1,2-a][1,4]benzodiazepin-4-yl)phenyl]-ethanone]
IC50 [1]: 7.94 µM
IC50 [2]: > 63.1 µM
hCYP3A4_BFC_Pct_Inh (CYP3A4): 3%
hCYP3A4_BQ_Pct_Inh (CYP3A4): 39%
hCYP3A4_DBF_Pct_Inh (CYP3A4): 3%
hCYP2D6_AMMC_Pct_Inh (CYP2D6): 3%
IC50 [3]: 0.794 µM
%-compound metabolised Met_gpLM [4]: 53%
IC50 (Microsporum canis B68128): 2 µM
IC50 [5]: > 63.1 µM
IC50 (Rhizopus oryzae IHEM5223): > 63.1 µM
IC50 [6]: 20 µM
%-compound metabolised_Met_hLM [7]: 20%
IC50 [8]: 10 µM
IC50 [9]: 3.98 µM
